57 molecules from patent US8309558B2, “Compounds for the treatment of hepatitis C” (Bristol-Myers Squibb Company, priority 2008, dated 2012) can be followed below.

In one experiment the test system is HCV replicon cells. As to the kind of experiment: HCV replicon FRET / luciferase assay (96-well plates). Format: cell-based. The note with it: Hepatitis C virus, Table 1a; HCV replicon; read-out: EC50. In short, it runs like this: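 Trypsinized replicon cells were seeded with compound titrations and incubated at 37 °C for various times. Alamar blue was added to gauge toxicity. Plates were then rinsed and either lysed with FRET peptide reagent for kinetic fluorescence reading or switched to phenol red-free DMEM for luciferase measurement.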

Experiment [1] addresses T1, HCV NS5B RdRp genotype 1b (Hepatitis C virus genotype 1b, UniProt Q9WMX2).
T1 construct: The protein was expressed with an 18 amino acid C-terminal truncation to enhance the solubility; made in house; host or cells: E. coli BL21(DE3), pET21a vector
As to the kind of experiment: Standard HCV NS5B RdRp enzyme assay. Format: biochemical. The note with it: Table 1a; HCV NS5B RdRp genotype 1b; read-out: IC50. Put shortly:
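C-terminally truncated (18 aa) genotype 1b NS5B from E. coli, 28 nM, with 6 nM polyA template, 180 nM biotinylated oligo-dT12 primer and 3H-UTP (0.29 μM total UTP). Hepes pH 7.5 buffer with 2% DMSO; 60 min at 30° C. EDTA stop, SPA read-out; IC50 from seven concentrations by four-parameter fit.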

T1 sequence (Q9WMX2 2420-2992): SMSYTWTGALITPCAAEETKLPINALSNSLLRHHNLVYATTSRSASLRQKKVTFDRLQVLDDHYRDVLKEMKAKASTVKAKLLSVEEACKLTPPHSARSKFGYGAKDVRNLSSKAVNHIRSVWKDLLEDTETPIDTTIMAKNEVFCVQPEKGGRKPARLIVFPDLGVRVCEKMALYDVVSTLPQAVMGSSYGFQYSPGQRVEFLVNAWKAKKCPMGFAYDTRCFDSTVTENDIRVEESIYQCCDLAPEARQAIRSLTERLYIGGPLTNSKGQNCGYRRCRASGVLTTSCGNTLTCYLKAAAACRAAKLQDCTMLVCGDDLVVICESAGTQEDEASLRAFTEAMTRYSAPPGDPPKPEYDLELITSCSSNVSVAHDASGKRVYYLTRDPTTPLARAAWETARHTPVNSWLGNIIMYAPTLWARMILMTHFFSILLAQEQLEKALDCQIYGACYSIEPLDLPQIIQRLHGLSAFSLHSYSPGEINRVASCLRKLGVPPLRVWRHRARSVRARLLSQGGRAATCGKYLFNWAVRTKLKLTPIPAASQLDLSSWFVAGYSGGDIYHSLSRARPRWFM

`CNC(=O)c1c(-c2ccc(F)cc2)oc2ccc(-c3cccc(C(=O)NC4CCCC4)c3)cc12`: the EC50 in the experiment with HCV replicon cells is below 0.25 µM. Further, in experiment [1], the IC50 is below 0.25 µM.
For `CCCCCNC(=O)c1cccc(-c2ccc3oc(-c4ccc(F)cc4)c(C(=O)NC)c3c2)c1`, the EC50 in the experiment on HCV replicon cells was below 0.25 µM. Further, the IC50 in experiment [1] was below 0.25 µM.
Take `CNC(=O)c1c(-c2ccc(F)cc2)oc2ccc(-c3cccc(C(=O)NCc4ccc(C)cc4)c3)cc12`: the EC50 with HCV replicon cells was below 0.25 µM. The IC50 in experiment [1] was below 0.25 µM.
For the molecule `CNC(=O)c1c(-c2ccc(F)cc2)oc2ccc(-c3cccc(C(=O)NCCC(C)C)c3)cc12`, the EC50 in the experiment on HCV replicon cells was below 0.25 µM. In addition, the IC50 in experiment [1] is 0.25 to 1 µM.
With `CNC(=O)c1c(-c2ccc(F)cc2)oc2ccc(-c3cccc(C(=O)NC4CCCCC4)c3)cc12`, in the experiment with HCV replicon cells, the concentration giving a half-maximal response (EC50) is below 0.25 µM. Also, the IC50 in experiment [1] is below 0.25 µM.
Consider `CNC(=O)c1c(-c2ccc(F)cc2)oc2ccc(-c3cccc(C(=O)Nc4ccccc4OC)c3)cc12`, for which, in the experiment on HCV replicon cells, the EC50 is below 0.25 µM. Besides, the IC50 in experiment [1] is 0.25 to 1 µM.
The corresponding values for `CNC(=O)c1c(-c2ccc(F)cc2)oc2ccc(-c3cccc(C(=O)NC4CCCCCC4)c3)cc12` are below 0.25 µM and below 0.25 µM.
For `CNC(=O)c1c(-c2ccc(F)cc2)oc2ccc(-c3cccc(C(=O)N[C@@H](CO)C(C)(C)C)c3)cc12`, in the experiment with HCV replicon cells, the EC50 was in the range of 1 to 10 µM. For the same molecule, in experiment [1], the IC50 was in the range of 1 to 10 µM.
For `CCCC(CCC)NC(=O)c1cccc(-c2ccc3oc(-c4ccc(F)cc4)c(C(=O)NC)c3c2)c1`, in the experiment with HCV replicon cells, the EC50 is 1 to 10 µM. Besides, the IC50 in experiment [1] is above 0.4 µM.
`CNC(=O)c1c(-c2ccc(F)cc2)oc2ccc(-c3cccc(C(=O)NS(=O)(=O)C(C)(C)C)c3)cc12`: the EC50 in the experiment with HCV replicon cells lay in the range of 1 to 10 µM. Also, the IC50 in experiment [1] was below 0.25 µM.
For `CNC(=O)c1c(-c2ccc(F)cc2)oc2ccc(-c3cccc(C(=O)NS(=O)(=O)c4ccccc4)c3)cc12`, in that order: 1 to 10 µM and below 0.25 µM.
The corresponding values for `CNC(=O)c1c(-c2ccc(F)cc2)oc2ccc(-c3cccc(C(=O)N(C)S(=O)(=O)c4ccccc4)c3)cc12` are 1 to 10 µM and above 1.39 µM.
For `CNC(=O)c1c(-c2ccc(F)cc2)oc2ccc(-c3cccc(C(=O)NC(C)(C)c4ccccc4)c3)c(NC(C)=O)c12`, in the experiment with HCV replicon cells, the EC50 lay within 1 to 10 µM. Besides, the IC50 in experiment [1] lay in the range of 1 to 10 µM.
For `CNC(=O)c1c(-c2ccc(F)cc2)oc2ccc(-c3cccc(S(C)(=O)=O)c3)cc12`, in the experiment with HCV replicon cells, the EC50 lay within 1 to 10 µM. Also, the IC50 in experiment [1] was above 10 µM.
Consider `CNC(=O)c1c(-c2ccc(F)cc2)oc2ccc(-c3cc(C(F)(F)F)ccc3OC)cc12`, for which the EC50 with HCV replicon cells was above 3.7 µM. The IC50 in experiment [1] was above 10 µM.
For `CNC(=O)c1c(-c2ccc(F)cc2)oc2ccc(-c3ccc(C(=O)NC4CC4)cc3)cc12`, in that order: above 1.23 µM and above 10 µM.
For `CNC(=O)c1c(-c2ccc(F)cc2)oc2ccc(-c3cc(C)c(Br)cc3C)cc12`, in that order: above 3.7 µM and above 10 µM.
The corresponding values for `CNC(=O)c1c(-c2ccc(F)cc2)oc2ccc(-c3ccc(C(F)(F)F)c(Cl)c3)cc12` are above 1.23 µM and above 10 µM.
Turning to `CNC(=O)c1c(-c2ccc(F)cc2)oc2ccc(-c3ccc(OC)nc3OC)cc12`, the EC50 with HCV replicon cells is above 1.23 µM. In addition, in experiment [1], the IC50 was above 10 µM.
For `CNC(=O)c1c(-c2ccc(F)cc2)oc2ccc(-c3ccc(CNS(C)(=O)=O)cc3)cc12`, in that order: above 1.23 µM and above 10 µM.
For `CNC(=O)c1c(-c2ccc(F)cc2)oc2ccc(-c3ccc(OC)nc3)cc12`, in that order: above 1.23 µM and above 10 µM.
The corresponding values for `CNC(=O)c1c(-c2ccc(F)cc2)oc2ccc(-c3cc(OC)ncc3Cl)cc12` are above 1.23 µM and above 10 µM.
With `CNC(=O)c1c(-c2ccc(F)cc2)oc2ccc(-c3cccc(C(N)=O)c3)cc12`, the EC50 in the experiment on HCV replicon cells was above 3.7 µM. In addition, in experiment [1], the concentration for half-maximal inhibition (IC50) fell in the range of 1 to 10 µM.
Regarding `CNC(=O)c1c(-c2ccc(F)cc2)oc2ccc(-c3cccc(C(=O)OC)c3)cc12`, the EC50 in the experiment with HCV replicon cells is above 3.7 µM. In experiment [1], the IC50 was above 10 µM.
The corresponding values for `CNC(=O)c1ccc(-c2ccc3oc(-c4ccc(F)cc4)c(C(=O)NC)c3c2)cc1` are above 3.7 µM and above 10 µM.
The corresponding values for `CNC(=O)c1c(-c2ccc(F)cc2)oc2ccc(-c3cccc(S(=O)(=O)NC)c3)cc12` are above 3.7 µM and above 10 µM.
For `CNC(=O)c1c(-c2ccc(F)cc2)oc2ccc(-c3cccc(C(=O)O)c3)cc12`, in that order: above 10 µM and 1 to 10 µM.
For the molecule `CNC(=O)c1c(-c2ccc(F)cc2)oc2ccc(-c3ccc(CCC(=O)O)cc3)cc12`, the EC50 with HCV replicon cells was above 10 µM. Besides, the IC50 in experiment [1] was 1 to 10 µM.
For `CNC(=O)Nc1c(-c2ccc(F)cc2)oc2ccc(OC(C)C)cc12`, in that order: above 10 µM and above 10 µM.
The corresponding values for `CNC(=O)c1c(-c2ccc(F)cc2)oc2ccc(-c3ccc(Cl)cc3C(=O)O)cc12` are above 10 µM and 1 to 10 µM.
For `CNC(=O)c1c(-c2ccc(F)cc2)oc2ccc(-c3ccc(C(=O)OC(C)(C)C)cc3)cc12`, in that order: above 10 µM and above 10 µM.
Regarding `CNC(=O)c1c(-c2ccc(F)cc2)oc2ccc(-c3ccc(C(=O)O)c(F)c3)cc12`, the EC50 in the experiment on HCV replicon cells was above 10 µM. In addition, the IC50 in experiment [1] fell in the range of 1 to 10 µM.
For `CNC(=O)c1c(-c2ccc(F)cc2)oc2ccc(-c3ccccc3/C=C/C(=O)O)cc12`, in that order: above 10 µM and 1 to 10 µM.
For `CNC(=O)c1c(-c2ccc(F)cc2)oc2ccc(-c3cccc(C(=O)N4CCN(C)CC4)c3)cc12`, in that order: above 10 µM and above 10 µM.
For `CNC(=O)c1c(-c2ccc(F)cc2)oc2ccc(-c3cccc(CO)c3)cc12`, in that order: above 10 µM and above 10 µM.
Consider `CNC(=O)c1c(-c2ccc(F)cc2)oc2ccc(-c3cc(Br)cnc3F)cc12`, for which the EC50 with HCV replicon cells is above 10 µM. Further, the IC50 in experiment [1] was above 10 µM.
As to `CNC(=O)c1c(-c2ccc(F)cc2)oc2ccc(-c3cccc(CCC(=O)O)c3)cc12`, in the experiment on HCV replicon cells, the EC50 is above 10 µM. Moreover, the IC50 in experiment [1] lay within 1 to 10 µM.
The corresponding values for `CNC(=O)c1c(-c2ccc(F)cc2)oc2ccc(-c3ccc(F)cc3Cl)cc12` are above 10 µM and above 10 µM.
For `CCN(CC)C(=O)c1ccc(-c2ccc3oc(-c4ccc(F)cc4)c(C(=O)NC)c3c2)cc1`, in that order: above 10 µM and 1 to 10 µM.
For `CNC(=O)c1c(-c2ccc(F)cc2)oc2ccc(-c3ccc(NC(=O)CCC(=O)O)cc3)cc12`, in that order: above 10 µM and 1 to 10 µM.
As to `CNC(=O)c1c(-c2ccc(F)cc2)oc2ccc(-c3ccc(F)cc3CN)cc12`, the EC50 in the experiment with HCV replicon cells was above 10 µM. Moreover, in experiment [1], the IC50 is above 10 µM.
For the molecule `CNC(=O)c1c(-c2ccc(F)cc2)oc2ccc(-c3sccc3C(=O)O)cc12`, the EC50 in the experiment on HCV replicon cells is above 10 µM. Besides, in experiment [1], the IC50 is above 10 µM.
In the case of `CNC(=O)c1c(-c2ccc(F)cc2)oc2ccc(-c3ccc(F)c(C(=O)O)c3)cc12`, in the experiment with HCV replicon cells, the EC50 was above 10 µM. Moreover, in experiment [1], the IC50 lay within 1 to 10 µM.
For `CNC(=O)c1c(-c2ccc(F)cc2)oc2ccc(-c3cc(C(=O)O)cc([N+](=O)[O-])c3)cc12`, in that order: above 10 µM and 0.25 to 1 µM.
For `CNC(=O)c1c(-c2ccc(F)cc2)oc2ccc(-c3ccc(C(=O)O)c(Cl)c3)cc12`, in that order: above 10 µM and 1 to 10 µM.
The corresponding values for `CNC(=O)c1c(-c2ccc(F)cc2)oc2ccc(-c3cccc(C(=O)NCC(N)=O)c3)cc12` are above 10 µM and above 10 µM.
Take `CNC(=O)c1c(-c2ccc(F)cc2)oc2ccc(-c3cccc(C(=O)N4CCN(CCOC)CC4)c3)cc12`: the EC50 with HCV replicon cells is above 10 µM. Besides, the IC50 in experiment [1] was above 10 µM.
As for `CNC(=O)c1c(-c2ccc(F)cc2)oc2ccc(-c3cccc(C(=O)NCCc4ccccc4)c3)cc12`, in the experiment with HCV replicon cells, the EC50 was above 10 µM. Moreover, the IC50 in experiment [1] is above 10 µM.
Take `CNC(=O)c1c(-c2ccc(F)cc2)oc2ccc(-c3ccc(C(=O)NCCC(N)=O)cc3)cc12`: the EC50 in the experiment on HCV replicon cells was above 10 µM. Moreover, in experiment [1], the half-inhibitory concentration (IC50) was above 10 µM.
As to `CNC(=O)c1c(-c2ccc(F)cc2)oc2ccc(-c3ccc(C(=O)N(C)CCC#N)cc3)cc12`, the half-maximal effective concentration (EC50) with HCV replicon cells is above 10 µM. For the same molecule, the IC50 in experiment [1] fell in the range of 1 to 10 µM.
On to `CNC(=O)c1c(-c2ccc(F)cc2)oc2ccc(-c3ccc(C(=O)N4CCC[C@H]4CO)cc3)cc12`, for which the EC50 in the experiment on HCV replicon cells was above 10 µM. Also, in experiment [1], the IC50 is above 10 µM.
Take `CNC(=O)c1c(-c2ccc(F)cc2)oc2ccc(-c3ccc(C(=O)NCC(N)=O)cc3)cc12`: the EC50 with HCV replicon cells is above 10 µM. The IC50 in experiment [1] was above 10 µM.
With `CNC(=O)c1c(-c2ccc(F)cc2)oc2ccc(-c3ccc(C(=O)N(C)CCO)cc3)cc12`, in the experiment on HCV replicon cells, the EC50 is above 10 µM. Moreover, the IC50 in experiment [1] lay within 1 to 10 µM.
For `CNC(=O)c1c(-c2ccc(F)cc2)oc2ccc(-c3ccc(C(=O)N(C)CC(=O)N(C)C)cc3)cc12`, in that order: above 10 µM and above 10 µM.
The corresponding values for `CNC(=O)c1c(-c2ccc(F)cc2)oc2ccc(-c3ccc(C(=O)NCCc4ccccc4Cl)cc3)cc12` are above 10 µM and above 10 µM.
The corresponding values for `CNC(=O)c1c(-c2ccc(F)cc2)oc2ccc(-c3ccc(C(=O)NCCNC(C)=O)cc3)cc12` are above 10 µM and above 10 µM.
On to `CNC(=O)c1c(-c2ccc(F)cc2)oc2ccc(-c3ccc(C(=O)NCCc4ccc(OC)cc4)cc3)cc12`, for which, in the experiment on HCV replicon cells, the EC50 is above 10 µM. In experiment [1], the IC50 is above 10 µM.
